Assays:
green foxtail [1] = experiment: Test Example 5: herbicidal effect by foliage application, plastic box (Table 20, symbol G); type: in vivo, green foxtail (Setaria viridis); conditions: foliage application, AAH 320 g/ha, three weeks after application
Summary of the method: (§1)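 Foliar spray test: emulsion formulation diluted in water to a set application rate, sprayed onto 14-day-old plants raised in diluvial soil at 25° C to 30° C under glass. Both herbicidal effect and crop effect rated visually three weeks later.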

barnyard grass [2] = experiment: Test Example 4: herbicidal effect by soil treatment (Table 19, symbol H); type: in vivo, barnyard grass (Echinochloa crus-galli); conditions: amount of applied herbicide 320 g/ha
Summary of the method: (§2)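 Step 1: sow seeds in sterilized diluvial soil, cover ~1.5 cm. Step 2: spray diluted emulsion onto soil surface at predetermined rate. Step 3: greenhouse, 25–30° C, three weeks. Step 4: grade effect on each plant by earlier criteria.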

false cleavers [3] = experiment: Test Example 5: herbicidal effect by foliage application, plastic box (Table 20, symbol Q); type: in vivo, false cleavers (Galium spurium); conditions: foliage application, AAH 320 g/ha, three weeks after application
Summary of the method: as §1

windgrass [4] = experiment: Test Example 4: herbicidal effect by soil treatment (Table 19, symbol L); type: in vivo, windgrass (Apera spica-venti); conditions: amount of applied herbicide 320 g/ha
Summary of the method: as §2

barnyard grass [5] = experiment: Test Example 5: herbicidal effect by foliage application, plastic box (Table 20, symbol H); type: in vivo, barnyard grass (Echinochloa crus-galli); conditions: foliage application, AAH 320 g/ha, three weeks after application
Summary of the method: as §1

velvetleaf [6] = experiment: Test Example 5: herbicidal effect by foliage application, plastic box (Table 20, symbol M); type: in vivo, velvetleaf (Abutilon theophrasti); conditions: foliage application, AAH 320 g/ha, three weeks after application
Summary of the method: as §1

persian speedwell [7] = experiment: Test Example 5: herbicidal effect by foliage application, plastic box (Table 20, symbol R); type: in vivo, Persian speedwell (Veronica persica); conditions: foliage application, AAH 320 g/ha, three weeks after application
Summary of the method: as §1

barnyard grass [8] = experiment: Test Example 3: herbicidal effect by foliage application, Wagner pot (Table 18, symbol H); type: in vivo, barnyard grass (Echinochloa crus-galli); conditions: 320 g/ha
Summary of the method: (§3)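 Plants were sown in alluvial soil held under 0.1–0.5 cm standing water and grown 14 days in a greenhouse at 25–30 °C. An emulsifiable formulation, water-diluted to the set dose, was then sprayed onto the foliage, and effects were scored three weeks later using previously defined criteria.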

wild oat [9] = experiment: Test Example 5: herbicidal effect by foliage application, plastic box (Table 20, symbol I); type: in vivo, wild oat (Avena fatua); conditions: foliage application, AAH 320 g/ha, three weeks after application
Summary of the method: as §1

windgrass [10] = experiment: Test Example 5: herbicidal effect by foliage application, plastic box (Table 20, symbol L); type: in vivo, windgrass (Apera spica-venti); conditions: foliage application, AAH 320 g/ha, three weeks after application
Summary of the method: as §1

blackgrass [11] = experiment: Test Example 5: herbicidal effect by foliage application, plastic box (Table 20, symbol J); type: in vivo, blackgrass (Alopecurus myosuroides); conditions: foliage application, AAH 320 g/ha, three weeks after application
Summary of the method: as §1

chickweed [12] = experiment: Test Example 5: herbicidal effect by foliage application, plastic box (Table 20, symbol P); type: in vivo, common chickweed (Stellaria media); conditions: foliage application, AAH 320 g/ha, three weeks after application
Summary of the method: as §1

redroot pigweed = experiment: Test Example 4: herbicidal effect by soil treatment (Table 19, symbol N); type: in vivo, redroot pigweed (Amaranthus retroflexus); conditions: amount of applied herbicide 320 g/ha
Summary of the method: as §2

persian speedwell [13] = experiment: Test Example 4: herbicidal effect by soil treatment (Table 19, symbol R); type: in vivo, Persian speedwell (Veronica persica); conditions: amount of applied herbicide 320 g/ha
Summary of the method: as §2

Chinese sprangletop = experiment: Test Example 3: herbicidal effect by foliage application, Wagner pot (Table 18, symbol D); type: in vivo, chinese sprangletop (Leptochloa chinensis); conditions: 320 g/ha
Summary of the method: as §3

rice flat sedge = experiment: Test Example 3: herbicidal effect by foliage application, Wagner pot (Table 18, symbol E); type: in vivo, rice flat sedge (Cyperus iria); conditions: 320 g/ha
Summary of the method: as §3

blackgrass [14] = experiment: Test Example 4: herbicidal effect by soil treatment (Table 19, symbol J); type: in vivo, blackgrass (Alopecurus myosuroides); conditions: amount of applied herbicide 320 g/ha
Summary of the method: as §2

southern crabgrass [15] = experiment: Test Example 5: herbicidal effect by foliage application, plastic box (Table 20, symbol F); type: in vivo, southern crabgrass (Digitaria ciliaris); conditions: foliage application, AAH 320 g/ha, three weeks after application
Summary of the method: as §1

false cleavers [16] = experiment: Test Example 4: herbicidal effect by soil treatment (Table 19, symbol Q); type: in vivo, false cleavers (Galium spurium); conditions: amount of applied herbicide 320 g/ha
Summary of the method: as §2

wild oat [17] = experiment: Test Example 4: herbicidal effect by soil treatment (Table 19, symbol I); type: in vivo, wild oat (Avena fatua); conditions: amount of applied herbicide 320 g/ha
Summary of the method: as §2

chickweed [18] = experiment: Test Example 4: herbicidal effect by soil treatment (Table 19, symbol P); type: in vivo, common chickweed (Stellaria media); conditions: amount of applied herbicide 320 g/ha
Summary of the method: as §2

velvetleaf [19] = experiment: Test Example 4: herbicidal effect by soil treatment (Table 19, symbol M); type: in vivo, velvetleaf (Abutilon theophrasti); conditions: amount of applied herbicide 320 g/ha
Summary of the method: as §2

southern crabgrass [20] = experiment: Test Example 4: herbicidal effect by soil treatment (Table 19, symbol F); type: in vivo, southern crabgrass (Digitaria ciliaris); conditions: amount of applied herbicide 320 g/ha
Summary of the method: as §2

lambsquarters [21] = experiment: Test Example 4: herbicidal effect by soil treatment (Table 19, symbol O); type: in vivo, lambsquarters (Chenopodium album); conditions: amount of applied herbicide 320 g/ha
Summary of the method: as §2

lambsquarters [22] = experiment: Test Example 5: herbicidal effect by foliage application, plastic box (Table 20, symbol O); type: in vivo, lambsquarters (Chenopodium album); conditions: foliage application, AAH 320 g/ha, three weeks after application
Summary of the method: as §1

Italian ryegrass [23] = experiment: Test Example 4: herbicidal effect by soil treatment (Table 19, symbol K); type: in vivo, Italian ryegrass (Lolium multiflorum); conditions: amount of applied herbicide 320 g/ha
Summary of the method: as §2

Italian ryegrass [24] = experiment: Test Example 5: herbicidal effect by foliage application, plastic box (Table 20, symbol K); type: in vivo, Italian ryegrass (Lolium multiflorum); conditions: foliage application, AAH 320 g/ha, three weeks after application
Summary of the method: as §1

green foxtail [25] = experiment: Test Example 4: herbicidal effect by soil treatment (Table 19, symbol G); type: in vivo, green foxtail (Setaria viridis); conditions: amount of applied herbicide 320 g/ha
Summary of the method: as §2

With `Cc1nn(C)c(=O)c(-c2c(-c3ccc4c(c3)OC(F)(F)O4)sc3ccccc23)c1O` [1-099] the “G: green foxtail, herbicidal effect” value (green foxtail [1]) was 0 (Herbicidal rate of 5% or less (almost no effect)), the “herbicidal effect rating, H: barnyard grass” value (barnyard grass [2]) was 0 (Herbicidal rate of 5% or less (almost no effect)) and the “Q: false cleavers, herbicidal effect” value (false cleavers [3]) was 2 (Herbicidal rate of 20% or more and less than 40%). The “herbicidal effect rating, L: windgrass” value (windgrass [4]) was 0 (Herbicidal rate of 5% or less (almost no effect)), the “H: barnyard grass, herbicidal effect” value (barnyard grass [5]) was 0 (Herbicidal rate of 5% or less (almost no effect)) and the “M: velvetleaf, herbicidal effect” value (velvetleaf [6]) was 5 (Herbicidal rate of 90% or more (almost completely withered)). For the same compound, the “R: persian speedwell, herbicidal effect” value (persian speedwell [7]) was 5 (Herbicidal rate of 90% or more (almost completely withered)), the “herbicidal effect on H (barnyard grass), rating 0-5” value (barnyard grass [8]) was 0 (Herbicidal rate of 5% or less (almost no effect)) and the “I: wild oat, herbicidal effect” value (wild oat [9]) was 0 (Herbicidal rate of 5% or less (almost no effect)). The “L: windgrass, herbicidal effect” value (windgrass [10]) was 0 (Herbicidal rate of 5% or less (almost no effect)), the “J: blackgrass, herbicidal effect” value (blackgrass [11]) was 1 (Herbicidal rate of 5% or more and less than 20%) and the “P: chickweed, herbicidal effect” value (chickweed [12]) was 5 (Herbicidal rate of 90% or more (almost completely withered)). The “herbicidal effect rating, N: redroot pigweed” value (redroot pigweed) was 0 (Herbicidal rate of 5% or less (almost no effect)), the “herbicidal effect rating, R: persian speedwell” value (persian speedwell [13]) was 5 (Herbicidal rate of 90% or more (almost completely withered)) and the “herbicidal effect on D (Chinese sprangletop), rating 0-5” value (Chinese sprangletop) was 0 (Herbicidal rate of 5% or less (almost no effect)). For the same compound, the “herbicidal effect on E (rice flat sedge), rating 0-5” value (rice flat sedge) was 5 (Herbicidal rate of 90% or more (almost completely withered)), the “herbicidal effect rating, J: blackgrass” value (blackgrass [14]) was 0 (Herbicidal rate of 5% or less (almost no effect)) and the “F: southern crabgrass, herbicidal effect” value (southern crabgrass [15]) was 0 (Herbicidal rate of 5% or less (almost no effect)). For the same compound, the “herbicidal effect rating, Q: false cleavers” value (false cleavers [16]) was 2 (Herbicidal rate of 20% or more and less than 40%), the “herbicidal effect rating, I: wild oat” value (wild oat [17]) was 0 (Herbicidal rate of 5% or less (almost no effect)) and the “herbicidal effect rating, P: chickweed” value (chickweed [18]) was 4 (Herbicidal rate of 70% or more and less than 90%). The “herbicidal effect rating, M: velvetleaf” value (velvetleaf [19]) was 0 (Herbicidal rate of 5% or less (almost no effect)), the “herbicidal effect rating, F: southern crabgrass” value (southern crabgrass [20]) was 0 (Herbicidal rate of 5% or less (almost no effect)) and the “herbicidal effect rating, O: lambsquarters” value (lambsquarters [21]) was 0 (Herbicidal rate of 5% or less (almost no effect)). For the same compound, the “O: lambsquarters, herbicidal effect” value (lambsquarters [22]) was 3 (Herbicidal rate of 40% or more and less than 70%), the “herbicidal effect rating, K: Italian ryegrass” value (Italian ryegrass [23]) was 0 (Herbicidal rate of 5% or less (almost no effect)) and the “K: Italian ryegrass, herbicidal effect” value (Italian ryegrass [24]) was 3 (Herbicidal rate of 40% or more and less than 70%). The “herbicidal effect rating, G: green foxtail” value (green foxtail [25]) was 0 (Herbicidal rate of 5% or less (almost no effect)).

Reference: patent US20230085307A1, “PYRIDAZINONE COMPOUND AND HERBICIDE” (NISSAN CHEMICAL CORPORATION, priority 2019, published 2023)
